Measurements published in patent publication US11400058B2, “Intravenous formulations of coenzyme Q10 (CoQ10) and methods of use thereof” (Berg LLC, priority 2010, dated 2022).
Marks after values point to notes of the source that are not given here.

Assay: 4-week repeat-dose toxicology study in rats with 2-week recovery (Study 20000328)
[1] = 250 mg/kg F, end of dosing, animals of 10
[2] = 250 mg/kg F, end of recovery, animals of 5
[3] = 250 mg/kg M, end of dosing, animals of 10
[4] = 250 mg/kg M, end of recovery, animals of 5

COC1=C(OC)C(=O)C(C/C=C(\C)CC/C=C(\C)CC/C=C(\C)CC/C=C(\C)CC/C=C(\C)CC/C=C(\C)CC/C=C(\C)CC/C=C(\C)CC/C=C(\C)CCC=C(C)C)=C(C)C1=O [CoQ10, Coenzyme Q10]
2: Spleen Histiocytic Infiltration, Marked [1] | Gross Pathology: Enlarged Spleen [2] | Liver Histiocytic Infiltration, Moderate [3] | Adrenal Gland Vacuolation, Mild [4] | Adrenal Gland Vacuolation, Moderate [4] | Liver Focal Necrosis [4] | Lymph Node, Man. Histiocytic Infiltration, Minimal [4] | Lymph Node, Man. Histiocytic Infiltration, Moderate [4]
+11.0%: Liver weight (absolute), percent difference from controls (250 mg/kg M, end of dosing)
2.13* 10^3/cmm: Neutrophils (250 mg/kg M, end of dosing)
7: Spleen Histiocytic Infiltration, Moderate [1] | Liver Histiocytic Infiltration, Mild [3] | Lymph Node, Mes. Histiocytic Infiltration, Mild [3]
−16.4* %: Food Consumption, percent difference from controls (250 mg/kg M, end of dosing)
+82.7* %: Spleen weight (absolute), percent difference from controls (250 mg/kg F, end of recovery)
−17.6* %: Body Weight, percent difference from controls (250 mg/kg M, end of dosing)
0.42 IU/L: GGT (250 mg/kg M, end of recovery)
6: Lymph Node, Man. Histiocytic Infiltration, Moderate [3]
6.23 10^6/cmm: Erythrocytes (250 mg/kg M, end of dosing)
35* IU/L: ALT (250 mg/kg M, end of dosing)
3: Gross Pathology: Pale Pancreatic Lymph Node [2] | Lymph Node, Man. Histiocytic Infiltration, Mild [2] | Gross Pathology: Pale Pituitary [3] | Lymph Node, Man. Histiocytic Infiltration, Mild [3] | Gross Pathology: Pale Iliac Lymph Node [4] | Gross Pathology: Pale Pancreatic Lymph Node [4] | Spleen Histiocytic Infiltration, Mild [4]
+65.9%: Spleen weight (absolute), percent difference from controls (250 mg/kg M, end of dosing)
14.7 s: APPT (250 mg/kg F, end of recovery)
0: Adrenal Gland Vacuolation, Mild [2] | Adrenal Gland Vacuolation, Minimal [2] | Liver Focal Necrosis, Minimal [2] | Liver Histiocytic Infiltration, Minimal [2] | Liver Multifocal Necrosis, Mild [2] | Liver Vacuolation, Mild [2] | Liver Vacuolation, Minimal [2] | Lymph Node, Mes. Histiocytic Infiltration, Minimal [2] | Ovary Histiocytic Infiltration, Minimal [2] | Spleen Histiocytic Infiltration, Marked [2] | Spleen Histiocytic Infiltration, Moderate [2] | Died or Sacrificed Moribund (250 mg/kg M, animals of 15) | Adrenal Gland Vacuolation, Minimal [3] | Bone Marrow, Sternum Hyperplasia, Minimal [3] | Gross Pathology: Pale SQ Skin [3] | Injection Site Mononuclear Cell Infiltration, Mild [3] | Injection Site Mononuclear Cell Infiltration, Minimal [3] | Liver Focal Necrosis [3] | Liver Focal Necrosis, Minimal [3] | Liver Vacuolation, Minimal [3] | Lymph Node, Man. Histiocytic Infiltration, Minimal [3] | Skin, Dermis Histiocytic Infiltration [3] | Skin, Dermis Histiocytic Infiltration, Marked [3] | Skin, Dermis Histiocytic Infiltration, Mild [3] | Skin, Dermis Histiocytic Infiltration, Moderate [3] | Skin, SQ Histiocytic Infiltration [3] | Skin, SQ Histiocytic Infiltration, Mild [3] | Spleen Histiocytic Infiltration, Mild [3] | Adrenal Gland Vacuolation, Marked [4] | Adrenal Gland Vacuolation, Minimal [4] | Liver Focal Necrosis, Minimal [4] | Liver Histiocytic Infiltration, Moderate [4] | Liver Multifocal Necrosis, Moderate [4] | Liver Vacuolation, Mild [4] | Liver Vacuolation, Minimal [4] | Lymph Node, Mes. Histiocytic Infiltration, Minimal [4] | Spleen Histiocytic Infiltration, Minimal [4]
−15.0* %: Body Weight, percent difference from controls (250 mg/kg M, end of recovery)
0.14* 10^3/cmm: Eosinophils (250 mg/kg M, end of dosing)
15.3* seconds: APPT (250 mg/kg M, end of recovery)
15.55* 10^3/cmm: Leukocytes (250 mg/kg M, end of dosing)
96* IU/L: ALT (250 mg/kg M, end of recovery)
12.9* g/dL: Hemoglobin (250 mg/kg M, end of dosing)
+7.6%: Liver weight (absolute), percent difference from controls (250 mg/kg M, end of recovery)
40.4* %: Hematocrit (250 mg/kg M, end of dosing)
−14.1%: Food Consumption, percent difference from controls (250 mg/kg M, end of recovery)
5: Adrenal Gland Vacuolation [2] | Gross Pathology: Pale Liver [2] | Liver Histiocytic Infiltration [2] | Liver Vacuolation [2] | Liver Vacuolation, Moderate [2] | Lymph Node, Man. Histiocytic Infiltration [2] | Lymph Node, Mes. Histiocytic Infiltration [2] | Lymph Node, Mes. Histiocytic Infiltration, Mild [2] | Ovary Histiocytic Infiltration [2] | Spleen Histiocytic Infiltration [2] | Adrenal Gland Vacuolation, Mild [3] | Adrenal Gland Vacuolation, Moderate [3] | Gross Pathology: Enlarged Pancreatic Lymph Nodes [3] | Gross Pathology: Pale Liver [4] | Liver Histiocytic Infiltration [4] | Liver Vacuolation [4] | Liver Vacuolation, Moderate [4] | Lymph Node, Man. Histiocytic Infiltration [4] | Lymph Node, Mes. Histiocytic Infiltration [4] | Lymph Node, Mes. Histiocytic Infiltration, Mild [4] | Spleen Histiocytic Infiltration [4]
9: Injection Site Mononuclear Cell Infiltration, Moderate [3] | Lymph Node, Man. Histiocytic Infiltration [3] | Lymph Node, Mes. Histiocytic Infiltration [3] | Spleen Histiocytic Infiltration, Moderate [3]
213* IU/L: AST (250 mg/kg M, end of recovery)
113* IU/L: AST (250 mg/kg M, end of dosing)
14.7* seconds: APPT (250 mg/kg M, end of dosing)
0.16 IU/L: GGT (250 mg/kg M, end of dosing)
12.58 10^3/cmm: Lymphocytes (250 mg/kg M, end of dosing)
63* IU/L: ALT (250 mg/kg F, end of recovery)
8: Gross Pathology: Pale Lymph Nodes [3]
+38.7* %: Spleen weight (absolute), percent difference from controls (250 mg/kg M, end of recovery)
4: Adrenal Gland Vacuolation, Moderate [2] | Gross Pathology: Pale Iliac Lymph Node [2] | Gross Pathology: Pale Ovaries [2] | Liver Histiocytic Infiltration, Moderate [2] | Ovary Histiocytic Infiltration, Mild [2] | Spleen Histiocytic Infiltration, Mild [2] | Bone Marrow, Sternum Hyperplasia [3] | Bone Marrow, Sternum Hyperplasia, Mild [3] | Gross Pathology: Pale Adrenal [3] | Adrenal Gland Vacuolation [4] | Gross Pathology: Enlarged Spleen [4] | Liver Histiocytic Infiltration, Mild [4]
−12.6%: Body Weight, percent difference from controls (250 mg/kg F, end of recovery)
153* IU/L: AST (250 mg/kg F, end of recovery)
+0.7%: Food Consumption, percent difference from controls (250 mg/kg F, end of recovery)
+19.6%: Liver weight (absolute), percent difference from controls (250 mg/kg F, end of recovery)
1: Spleen Histiocytic Infiltration, Mild [1] | Adrenal Gland Vacuolation, Marked [2] | Liver Focal Necrosis [2] | Liver Focal Necrosis, Mild [2] | Liver Histiocytic Infiltration, Mild [2] | Liver Multifocal Necrosis [2] | Liver Multifocal Necrosis, Moderate [2] | Lymph Node, Man. Histiocytic Infiltration, Minimal [2] | Lymph Node, Man. Histiocytic Infiltration, Moderate [2] | Ovary Histiocytic Infiltration, Moderate [2] | Spleen Histiocytic Infiltration, Minimal [2] | Injection Site Mononuclear Cell Infiltration, Marked [3] | Liver Histiocytic Infiltration, Minimal [3] | Lymph Node, Mes. Histiocytic Infiltration, Minimal [3] | Lymph Node, Mes. Histiocytic Infiltration, Moderate [3] | Spleen Histiocytic Infiltration, Marked [3] | Liver Focal Necrosis, Mild [4] | Liver Histiocytic Infiltration, Minimal [4] | Liver Multifocal Necrosis [4] | Liver Multifocal Necrosis, Mild [4] | Lymph Node, Man. Histiocytic Infiltration, Mild [4] | Spleen Histiocytic Infiltration, Marked [4] | Spleen Histiocytic Infiltration, Moderate [4]
0.58* IU/L: GGT (250 mg/kg F, end of recovery)
10: Spleen Histiocytic Infiltration [1] | Adrenal Gland Vacuolation [3] | Gross Pathology: Pale Liver [3] | Injection Site Mononuclear Cell Infiltration [3] | Liver Histiocytic Infiltration [3] | Liver Vacuolation [3] | Liver Vacuolation, Mild [3] | Spleen Histiocytic Infiltration [3]
